According to patent US20230265151A1, “GIP/GLP1 CO-AGONIST COMPOUNDS” (priority 2020, published 2023):
Where two headings read alike, the source gives them in different places.

Experiments:
Type in all cases: cell-based
[1] = molecular target: hGLP-1R (Homo sapiens, UniProt P43220); assay: Functional cAMP formation (HTRF) in HEK-293 clonal cells expressing hGLP-1R, 0.1% bovine casein, without or with 1.0% human serum albumin; parameters: expressed in transfected cells; details: 37° C.; for EC50: cAMP, read-out: hGLP-1R EC50, nM (SEM, n); for Emax: HEK293, cAMP, percent of maximal response to GLP-1(7-36)NH2, read-out: hGLP-1R Emax, % ± SEM
How it was run: (§1)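 Cells were stimulated with peptide for 30 min at 37° C, then lysed in buffer carrying cAMP-d2 and anti-cAMP Eu3+-cryptate for a competitive HTRF read after at least 60 min at room temperature. The 665/620 nm ratio was converted to nM cAMP against a standard curve.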

[2] = molecular target: T1, hGIPR (Homo sapiens, UniProt P48546); assay: Functional cAMP formation (HTRF) in HEK-293 clonal cells expressing hGIPR, 0.1% bovine casein, without or with 1.0% human serum albumin; details: 37° C.; for Emax: HEK293, cAMP, percent of maximal response to GIP(1-42)NH2, read-out: hGIPR Emax, % ± SEM; for EC50: cAMP, 0.1% bovine casein (no human serum albumin), geometric mean, read-out: hGIPR EC50, nM (SEM, n)
T1 construct: expressed in transfected cells
T1 sequence (P48546 22-466): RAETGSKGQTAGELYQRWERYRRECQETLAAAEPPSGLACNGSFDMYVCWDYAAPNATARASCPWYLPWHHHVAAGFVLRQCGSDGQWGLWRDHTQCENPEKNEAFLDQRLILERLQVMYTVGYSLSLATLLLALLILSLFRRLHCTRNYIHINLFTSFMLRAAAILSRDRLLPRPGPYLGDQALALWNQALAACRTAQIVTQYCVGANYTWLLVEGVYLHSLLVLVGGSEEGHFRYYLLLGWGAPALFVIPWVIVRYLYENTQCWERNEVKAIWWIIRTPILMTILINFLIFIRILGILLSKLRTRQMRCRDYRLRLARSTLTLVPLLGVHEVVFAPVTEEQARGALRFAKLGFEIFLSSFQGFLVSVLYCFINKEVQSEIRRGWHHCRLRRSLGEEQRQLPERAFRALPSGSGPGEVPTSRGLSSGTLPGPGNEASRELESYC
How it was run: as §1

[3] = molecular target: T2, hGCGR (Homo sapiens, UniProt P47871); assay: Functional cAMP formation (HTRF) in HEK-293 clonal cells expressing hGCGR, 0.1% bovine casein, without or with 1.0% human serum albumin; details: cAMP, 37° C., read-out: hGCGR EC50, nM (SEM, n)
T2 construct: expressed in transfected cells
How it was run: as §1

[4] = 0.1% bovine casein (no human serum albumin), geometric mean
[5] = 0.1% bovine casein and 1.0% human serum albumin, geometric mean (SEM, n)
[6] = 0.1% bovine casein and 1.0% human serum albumin
[7] = 0.1% bovine casein, arithmetic mean

T2 sequence (P47871 26-477): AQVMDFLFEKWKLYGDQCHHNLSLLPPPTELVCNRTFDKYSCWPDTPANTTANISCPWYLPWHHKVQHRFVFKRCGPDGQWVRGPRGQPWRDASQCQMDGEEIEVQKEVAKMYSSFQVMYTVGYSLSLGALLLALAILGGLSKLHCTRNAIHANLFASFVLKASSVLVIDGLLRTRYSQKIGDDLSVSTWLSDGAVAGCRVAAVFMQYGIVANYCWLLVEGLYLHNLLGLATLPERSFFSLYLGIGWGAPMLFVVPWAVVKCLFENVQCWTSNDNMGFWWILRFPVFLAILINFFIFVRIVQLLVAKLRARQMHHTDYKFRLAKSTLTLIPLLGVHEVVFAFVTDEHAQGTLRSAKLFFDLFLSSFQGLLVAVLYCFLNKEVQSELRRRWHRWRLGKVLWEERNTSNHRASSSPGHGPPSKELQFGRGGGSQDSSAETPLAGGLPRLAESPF
Chain of hGLP-1R (P43220 24-463): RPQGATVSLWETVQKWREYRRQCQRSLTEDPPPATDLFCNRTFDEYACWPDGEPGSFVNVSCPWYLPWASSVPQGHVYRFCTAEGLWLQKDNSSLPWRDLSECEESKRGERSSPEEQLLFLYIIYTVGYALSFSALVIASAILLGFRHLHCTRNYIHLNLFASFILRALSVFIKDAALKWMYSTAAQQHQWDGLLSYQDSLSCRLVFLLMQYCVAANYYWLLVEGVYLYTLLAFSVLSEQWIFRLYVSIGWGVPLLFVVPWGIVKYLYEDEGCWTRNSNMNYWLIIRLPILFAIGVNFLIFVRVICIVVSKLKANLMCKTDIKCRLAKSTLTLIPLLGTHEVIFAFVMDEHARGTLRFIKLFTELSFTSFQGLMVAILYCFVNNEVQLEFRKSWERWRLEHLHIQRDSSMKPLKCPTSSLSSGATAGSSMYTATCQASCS

Compound	EC50 [1, 4]	EC50 [1, 5]	Emax [2, 6]	Emax [2, 7]	EC50 [2]	EC50 [3, 4]	EC50 [3, 5]	Emax [1, 7]	Emax [1, 6]
CC[C@H](C)[C@H](NC(=O)[C@H](CC(C)C)NC(=O)[C@](C)(Cc1ccc(O)cc1)NC(=O)[C@H](CCCCNC(=O)COCCOCCNC(=O)COCCOCCNC(=O)CC[C@H](NC(=O)CCCCCCCCCCCCC(=O)O)C(=O)O)NC(=O)[C@@H](NC(=O)[C@H](Cc1ccccc1)NC(=O)[C@H](CCC(=O)O)NC(=O)C(C)(C)NC(=O)[C@H](CCC(N)=O)NC(=O)[C@H](C)NC(=O)[C@H](CCC(N)=O)NC(=O)[C@H](CCCN)NC(=O)[C@H](CC(=O)O)NC(=O)[C@H](CC(C)C)NC(=O)[C@](C)(CC(C)C)NC(=O)[C@@H](NC(=O)C(C)(C)NC(=O)[C@H](Cc1ccc(O)cc1)NC(=O)[C@H](CC(=O)O)NC(=O)[C@H](CO)NC(=O)[C@@H](NC(=O)[C@](C)(Cc1ccccc1F)NC(=O)[C@@H](NC(=O)CNC(=O)[C@H](CCC(=O)O)NC(=O)C(C)(C)NC(=O)[C@@H](N)Cc1ccc(O)cc1)[C@@H](C)O)[C@@H](C)O)[C@@H](C)CC)[C@@H](C)CC)C(=O)N[C@@H](CCCCNC(=O)COCCOCCNC(=O)COCCOCCNC(=O)CC[C@H](NC(=O)CCCCCCCCCCCCC(=O)O)C(=O)O)C(=O)NCC(=O)NCC(=O)N1CCC[C@H]1C(=O)N[C@@H](CO)C(=O)N[C@@H](CO)C(=O)NCC(=O)N[C@@H](C)C(=O)N1CCC[C@H]1C(=O)N1CCC[C@H]1C(=O)N1CCC[C@H]1C(=O)N[C@@H](CO)C(N)=O [Example 412]	0.16 nM	18.3 nM	87.5%	95.4%	0.0108 nM	> 9950 nM	> 9950 nM		
CCCCCCCCCCCC(=O)N[C@@H](CCC(=O)NCCOCCOCC(=O)NCCOCCOCC(=O)NCCCC[C@H](NC(=O)[C@H](CCCN)NC(=O)[C@H](CC(=O)O)NC(=O)[C@H](CC(C)C)NC(=O)[C@](C)(CC(C)C)NC(=O)[C@@H](NC(=O)C(C)(C)NC(=O)[C@H](Cc1ccncc1)NC(=O)[C@H](CC(=O)O)NC(=O)[C@H](CO)NC(=O)[C@@H](NC(=O)[C@](C)(Cc1ccccc1F)NC(=O)[C@@H](NC(=O)CNC(=O)[C@H](CCC(=O)O)NC(=O)C(C)(C)NC(=O)[C@@H](N)Cc1ccc(O)cc1)[C@@H](C)O)[C@@H](C)O)[C@@H](C)CC)C(=O)N[C@@H](C)C(=O)N[C@@H](CCC(N)=O)C(=O)NC(C)(C)C(=O)N[C@@H](CCCCNC(=O)COCCOCCNC(=O)COCCOCCNC(=O)CC[C@H](NC(=O)CCCCCCCCCCC)C(=O)O)C(=O)N[C@@H](Cc1ccccc1)C(=O)N[C@H](C(=O)N[C@H](CCC(=O)O)C(=O)N[C@@](C)(Cc1ccc(O)cc1)C(=O)N[C@@H](CC(C)C)C(=O)N[C@H](C(=O)N[C@@H](CCCN)C(=O)NCC(=O)NCC(=O)N1CCC[C@H]1C(=O)N[C@@H](CO)C(=O)N[C@@H](CO)C(=O)NCC(=O)N[C@@H](C)C(=O)N1CCC[C@H]1C(=O)N1CCC[C@H]1C(=O)N1CCC[C@H]1C(=O)N[C@@H](CO)C(N)=O)[C@@H](C)CC)[C@@H](C)CC)C(=O)O [Example 413]	0.234 nM	5.47 nM	91.8%		0.0146 nM	> 9950 nM	> 9950 nM	96.9%	
CCCCCCCCCCCC(=O)N[C@@H](CCC(=O)NCCOCCOCC(=O)NCCOCCOCC(=O)NCCCC[C@H](NC(=O)[C@H](CCCN)NC(=O)[C@H](CC(=O)O)NC(=O)[C@H](CC(C)C)NC(=O)[C@](C)(CC(C)C)NC(=O)[C@@H](NC(=O)C(C)(C)NC(=O)[C@H](Cc1ccncc1)NC(=O)[C@H](CC(=O)O)NC(=O)[C@H](CO)NC(=O)[C@@H](NC(=O)[C@](C)(Cc1ccccc1F)NC(=O)[C@@H](NC(=O)CNC(=O)[C@H](CCC(=O)O)NC(=O)C(C)(C)NC(=O)[C@@H](N)Cc1ccc(O)cc1)[C@@H](C)O)[C@@H](C)O)[C@@H](C)CC)C(=O)N[C@@H](C)C(=O)N[C@@H](CCC(N)=O)C(=O)NC(C)(C)C(=O)N[C@@H](Cc1ccncc1)C(=O)N[C@@H](Cc1ccccc1)C(=O)N[C@H](C(=O)N[C@H](CCC(=O)O)C(=O)N[C@@](C)(Cc1ccc(O)cc1)C(=O)N[C@@H](CC(C)C)C(=O)N[C@H](C(=O)N[C@@H](CCCCNC(=O)COCCOCCNC(=O)COCCOCCNC(=O)CC[C@H](NC(=O)CCCCCCCCCCC)C(=O)O)C(=O)NCC(=O)NCC(=O)N1CCC[C@H]1C(=O)N[C@@H](CO)C(=O)N[C@@H](CO)C(=O)NCC(=O)N[C@@H](C)C(=O)N1CCC[C@H]1C(=O)N1CCC[C@H]1C(=O)N1CCC[C@H]1C(=O)N[C@@H](CO)C(N)=O)[C@@H](C)CC)[C@@H](C)CC)C(=O)O [Example 416]	0.332 nM		83%	99%	0.0214 nM	> 9950 nM	> 9950 nM		109%
CCCCCCCCCCCC(=O)N[C@@H](CCC(=O)NCCOCCOCC(=O)NCCOCCOCC(=O)NCCCC[C@H](NC(=O)[C@H](CO)NC(=O)[C@@H]1CCCN1C(=O)[C@@H]1CCCN1C(=O)[C@@H]1CCCN1C(=O)[C@H](C)NC(=O)CNC(=O)[C@H](CO)NC(=O)[C@H](CO)NC(=O)[C@@H]1CCCN1C(=O)CNC(=O)CNC(=O)[C@H](CCC(=O)O)NC(=O)[C@@H](NC(=O)[C@H](CC(C)C)NC(=O)[C@](C)(Cc1ccc(O)cc1)NC(=O)[C@@H](CCC(=O)O)NC(=O)[C@@H](NC(=O)[C@H](Cc1ccccc1)NC(=O)[C@H](Cc1ccncc1)NC(=O)C(C)(C)NC(=O)[C@H](CCC(N)=O)NC(=O)[C@H](C)NC(=O)[C@H](CCCCNC(=O)COCCOCCNC(=O)COCCOCCNC(=O)CC[C@H](NC(=O)CCCCCCCCCCC)C(=O)O)NC(=O)[C@H](CCCN)NC(=O)[C@H](CC(=O)O)NC(=O)[C@H](CC(C)C)NC(=O)[C@](C)(CC(C)C)NC(=O)[C@@H](NC(=O)C(C)(C)NC(=O)[C@H](Cc1ccncc1)NC(=O)[C@H](CC(=O)O)NC(=O)[C@H](CO)NC(=O)[C@@H](NC(=O)[C@](C)(Cc1ccccc1F)NC(=O)[C@@H](NC(=O)CNC(=O)[C@H](CCC(=O)O)NC(=O)C(C)(C)NC(=O)[C@@H](N)Cc1ccc(O)cc1)[C@@H](C)O)[C@@H](C)O)[C@@H](C)CC)[C@@H](C)CC)[C@@H](C)CC)C(N)=O)C(=O)O [Example 420]	0.123 nM		89.7%		0.00964 nM	> 9950 nM	> 9950 nM		109%
CCCCCCCCCCCC(=O)N[C@@H](CCC(=O)NCCOCCOCC(=O)NCCCC[C@H](NC(=O)[C@H](CCCN)NC(=O)[C@H](CC(=O)O)NC(=O)[C@H](CC(C)C)NC(=O)[C@](C)(CC(C)C)NC(=O)[C@@H](NC(=O)C(C)(C)NC(=O)[C@H](CCCCNC(=O)COCCOCCNC(=O)CC[C@H](NC(=O)CCCCCCCCCCC)C(=O)O)NC(=O)[C@H](CC(=O)O)NC(=O)[C@H](CO)NC(=O)[C@@H](NC(=O)[C@](C)(Cc1ccccc1F)NC(=O)[C@@H](NC(=O)CNC(=O)[C@H](CCC(=O)O)NC(=O)C(C)(C)NC(=O)[C@@H](N)Cc1ccc(O)cc1)[C@@H](C)O)[C@@H](C)O)[C@@H](C)CC)C(=O)N[C@@H](C)C(=O)N[C@@H](CCC(N)=O)C(=O)NC(C)(C)C(=O)N[C@@H](CCC(=O)O)C(=O)N[C@@H](Cc1ccccc1)C(=O)N[C@H](C(=O)N[C@H](CCC(=O)O)C(=O)N[C@@](C)(Cc1ccc(O)cc1)C(=O)N[C@@H](CC(C)C)C(=O)N[C@H](C(=O)N[C@@H](CCC(=O)O)C(=O)NCC(=O)NCC(=O)N1CCC[C@H]1C(=O)N[C@@H](CO)C(=O)N[C@@H](CO)C(=O)NCC(=O)N[C@@H](C)C(=O)N1CCC[C@H]1C(=O)N1CCC[C@H]1C(=O)N1CCC[C@H]1C(=O)N[C@@H](CO)C(N)=O)[C@@H](C)CC)[C@@H](C)CC)C(=O)O [Example 425]	0.0965 nM		89.9%	97.6%	0.00943 nM	> 9950 nM	> 9950 nM		
